Key:
[1] = tested on: peripheral blood mononuclear cells (PBMC), T cells; assay: ELISpot assay, gamma-interferon release (SFC) after stimulation with a-synuclein epitope pools; assay type: cell-based, human; details: for Pool +: IFNg, Pool Stimulated, number of donors with a positive response, Donors tested 1
Description: (§1) Blood from age matched controls and PD patients were obtained and mononuclear cells were isolated by gradient centrifugation.
(§2) Release of the cytokines gamma-interferon, which measures activation of CD4+ and/or CD8+ T cells, and the interleukin, IL-5, which measures activation of CD4+ T cells was measured by ELISpot assay. […] After 22 hours of stimulation at 37 C, the cells were removed and release of cytokines was measured by colorimetric detection of spot-forming cells (SFC). Confirmed release of cytokine is determined by the presence of a minimum of 20 SFC per million cells.
(§3) The binding algorithms in SubAim 1 predict how well the peptides would bind to MHC if present, but not if they are present in patients. To determine this, the presence of T cell response against the candidate antigens by patient blood-derived peripheral blood mononuclear cells (PBMC) is assessed by ELISPOT assays upon stimulation with the peptides. This assay detects and quantifies cytokine release (in this case, IFNγ and IL-5) from specific activated T cells.
(§4) Data were obtained from blood samples (25 ml) from 44 PD patients and 24 age-matched controls. The experiments were conducted blindly. PBMCs from these samples were isolated and exposed to pools comprising the 122 candidate class I and class II antigens and phosphorylated S129 epitopes generated in Subaim 1. For the PBMCs responsive to the pooled peptides, the response was then deconvoluted to identify individual epitopes.
(§5) PMBC fractions are recovered by standard methods with Ficoll gradient and T cells expansion (Oseroff et al., 2010). The methods for the analysis of T cell reactions and measurement of cytokines production using the enzyme-linked immunosorbent spot (ELISPOT) assay are published in analogous experiments to discover antigens in multiple sclerosis (Lolli et al., 2013) and in hay fever allergens (Oseroff et al., 2010). T cell responses are determined by measuring IFNγ and IL-5 release by ELISPOT. Statistical analysis of differences between populations is expected to be non-parametric and analyzed with the U-Mann-Whitney test. If there were a normal distribution of response, which is a priori unlikely as some patients have no T cell response, with an SD=1, 8 patients per group would be required to provide a p>90% that the study detect a >2 fold difference at a two-sided 0.05 significance level.

[2] = tested on: peripheral blood mononuclear cells (PBMC), T cells; assay: ELISpot assay, IL-5 release (SFC) after stimulation with a-synuclein epitope pools; assay type: cell-based, human
Description: as §1, §2, §3, §4, §5

[3] = Patients Summary, PD patients, of donors tested (peptide)
[4] = Patients Summary, PD patients, single peptide
[5] = number of donors positive to the single peptide, second 'Pool Stimulated' section (from r296), 12 donors tested
[6] = peptide + / donors tested (peptide), second 'Pool Stimulated' section (from r296), 12 donors tested
[7] = single peptide, second 'Pool Stimulated' section (from r296), 12 donors tested
[8] = pool 'Phospho' (phosphorylated peptides)
[9] = Patients Summary, Phospho pool peptides
[10] = Patients Summary, Phospho pool peptides, 10 donors tested
[11] = peptides of pool 'Poshpho', 8 donors tested
[12] = peptides of pool 'Poshpho', 8 donors tested, number of donors positive

Substance	Pool + [1]	IFNg Peptide + (donors positive to the peptide) [1, 3]	IFNg Response Frequency [1, 4] [%]	IFNg Total SFC [1, 4] [SFC]	IFNg Peptide + [1, 5]	IFNg Response Frequency [1, 6] [%]	IL-g Peptide + (donors positive to the peptide) [2, 3]	IL-g Response Frequency [2, 4] [%]	IL-g Total SFC [2, 4] [SFC]	IL-g Peptide + [2, 5]	IL-g Response Frequency [2, 6] [%]	IL-g Total SFC [2, 7] [SFC]	IFNg Total SFC [1, 7] [SFC]	IL-g Avg SFC [2, 4] [SFC]	further results
3521.0001 (PVDPDNEAY; listed as Homo sapiens)	0	0	0	0	0	0	0	0	0	0	0	0	–	–	–
3521.002 (AGKTKEGVL; listed as Homo sapiens)	0	1	13	98	0	0	1	13	106	0	0	0	0	106	IFNg Avg SFC [1, 4]: 98 SFC
3521.0002 (PSEEGYQDY; listed as Homo sapiens)	0	0	0	0	0	0	0	0	0	0	0	0	–	–	Pool + [1, 8]: 0; IFNg Avg SFC [1, 9]: 460 SFC; IFNg Response Frequency [1, 9]: 10%; IFNg Total SFC [1, 9]: 460 SFC; IFNg Peptide + (donors positive to the peptide) [1, 10]: 1; IFNg Response Frequency [1, 11]: 0%; IFNg Total SFC [1, 11]: 0 SFC; IFNg Peptide + [1, 12]: 0; IL-g Response Frequency [2, 9]: 0%; IL-g Total SFC [2, 9]: 0 SFC; IL-g Peptide + (donors positive to the peptide) [2, 10]: 0; IL-g Response Frequency [2, 11]: 0%; IL-g Total SFC [2, 11]: 0 SFC; IL-g Peptide + [2, 12]: 0
3521.003 (GSIAAATGFV; listed as Homo sapiens)	0	0	0	0	0	0	1	25	40	0	0	0	0	40	–
3521.0003 (SIAAATGFV; listed as Homo sapiens)	0	0	0	0	1	50	0	0	0	0	0	0	33.3	–	IFNg Avg SFC [1, 7]: 33.3 SFC
3521.004 (DNEAYEMPSE; listed as Homo sapiens)	0	0	0	0	0	0	0	0	0	0	0	0	–	–	Pool + [1, 8]: 0; IFNg Avg SFC [1, 9]: 364 SFC; IFNg Response Frequency [1, 9]: 20%; IFNg Total SFC [1, 9]: 727 SFC; IFNg Peptide + (donors positive to the peptide) [1, 10]: 2; IFNg Response Frequency [1, 11]: 0%; IFNg Total SFC [1, 11]: 0 SFC; IFNg Peptide + [1, 12]: 0; IL-g Avg SFC [2, 9]: 203 SFC; IL-g Response Frequency [2, 9]: 20%; IL-g Total SFC [2, 9]: 406.3 SFC; IL-g Peptide + (donors positive to the peptide) [2, 10]: 2; IL-g Response Frequency [2, 11]: 0%; IL-g Total SFC [2, 11]: 0 SFC; IL-g Peptide + [2, 12]: 0
3521.005 (APGKTKEGVL; listed as Homo sapiens)	0	1	13	44	0	0	2	25	137	0	0	0	0	67.5	IFNg Avg SFC [1, 4]: 44 SFC
3521.0005 (AVVTGVTAV; listed as Homo sapiens)	0	0	0	0	0	0	0	0	0	0	0	0	0	–	–
3521.006 (VATVAEKTKE; listed as Homo sapiens)	1	0	0	0	0	0	0	0	0	0	0	0	0	–	–
3521.0006 (VLYVGSKTK; listed as Homo sapiens)	0	5	83	1519	–	–	2	33	168	–	–	–	–	84	IFNg Avg SFC [1, 4]: 304 SFC
352100.45 (KTKKGVVHGV; listed as Homo sapiens)	0	–	–	–	–	–	–	–	–	–	–	–	–	–	–
